Measurements from US9321764B2, “Dihydro-pyrrolopyridinone inhibitors” (AbbVie Inc., priority 2013, dated 2016).

Experiments:
[1] = biological target: T1, BRD4 (BDII_E352-M457) (Homo sapiens, UniProt O60885); assay: TR-FRET bromodomain binding assay, second bromodomain of BRD4; conditions: His-tagged BD2, 30 nM Alexa647 probe; TR-FRET protocol A-E given per row
T1 construct: proliferation; Protocol; made in house
How it was run: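 His-tagged BRD4 BD2 ([…]) competed against an Alexa647-labelled BET-inhibitor probe in TR-FRET. Buffer was 20 mM sodium phosphate pH 6.0, 50 mM NaCl, 1 mM EDTA, 0.01% Triton X-100, 1 mM DTT, with method D DMSO series of 2.5 mM–800 nM (stock range). IC50 from 4-parameter fit, Ki from probe Kd and concentration.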

[2] = test system: breast cancer cell line MX-1; assay: MX-1 cell line proliferation assay; type: cell-based; conditions: Homo sapiens, MX1, 72 h, MX-1 cells, 3-day proliferation assay, Cell Titer Glo; read-out: Cellular proliferation EC50
How it was run: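 Final compound concentrations spanned 0.0001 to 3 μM, added to 5000 cells/well plated the previous night in RPMI 1640 plus 10% FBS at 37 °C.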

[3] = biological target: T2, BRD4 (BDI_K57-E168) (Homo sapiens, UniProt O60885); assay: TR-FRET bromodomain binding assay, first bromodomain of BRD4; conditions: His-tagged BD1, 100 nM Alexa647 probe; TR-FRET protocol A-E given per row
T2 construct: BD1: amino acids K57-E168; made in house
How it was run: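 Ki values come from IC50s (4-parameter logistic) corrected for probe Kd and concentration, normalised to no-compound and 1 μM unlabelled probe controls. Probe displacement by TR-FRET used 8 nM BD1 (K57-E168), 100 nM Alexa647 probe, 1 nM Eu-anti-His, 20 mM phosphate pH 6.0, 2% DMSO, 1 h, room temperature.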

| SMILES | Ki [1] | EC50 [2] | Ki [3] |
| --- | --- | --- | --- |
| CCc1cc2c(-c3cc(CS(C)(=O)=O)ccc3Oc3ccc(F)cc3F)cn(C)c2c(=O)[nH]1 [Example 92, 3-{2-(2,4-difluorophenoxy)-5-[(methylsulfonyl)methyl]phenyl}-5-ethyl-1-methyl-1,6-dihydro-7H-pyrrolo[2,3-c]pyridin-7-one] | 1.8 nM | 8 nM | 1.7 nM |
| Cn1cc(-c2cc(NS(C)(=O)=O)c(Oc3ccc(F)cc3F)cc2Oc2ccc(F)cc2F)c2cc[nH]c(=O)c21 [Example 13, N-[2,4-bis(2,4-difluorophenoxy)-5-(1-methyl-7-oxo-6,7-dihydro-1H-pyrrolo[2,3-c]pyridin-3-yl)phenyl]methanesulfonamide] | 213 nM | 136 nM | 173 nM |
| Cn1cc(-c2cc(CS(C)(=O)=O)ccc2NCC2CC2)c2cc[nH]c(=O)c21 [Example 110, 3-{2-[(cyclopropylmethyl)amino]-5-[(methylsulfonyl)methyl]phenyl}-1-methyl-1,6-dihydro-7H-pyrrolo[2,3-c]pyridin-7-one] | 215 nM | 136 nM | 61 nM |
| Cc1oncc1S(=O)(=O)NCc1ccc(Oc2ccc(F)cc2F)c(-c2cn(C)c3c(=O)[nH]ccc23)c1 [Example 139, N-[4-(2,4-difluorophenoxy)-3-(1-methyl-7-oxo-6,7-dihydro-1H-pyrrolo[2,3-c]pyridin-3-yl)benzyl]-5-methyl-1,2-oxazole-4-sulfonamide] | 525 nM | > 3000 nM | 129 nM |
| Cn1cc(-c2cc(CS(=O)(=O)N3CCOCC3)ccc2Oc2ccc(F)cc2F)c2cc[nH]c(=O)c21 [Example 95, 3-{2-(2,4-difluorophenoxy)-5-[(morpholin-4-ylsulfonyl)methyl]phenyl}-1-methyl-1,6-dihydro-7H-pyrrolo[2,3-c]pyridin-7-one] | 2.1 nM | 8 nM | 4.2 nM |
| CCS(=O)(=O)Nc1ccc(Oc2ccc(F)cc2F)c(-c2cn(C)c3c(=O)[nH]c(C(=O)N4CCCC4)cc23)c1 [Example 193, N-{4-(2,4-difluorophenoxy)-3-[1-methyl-7-oxo-5-(pyrrolidin-1-ylcarbonyl)-6,7-dihydro-1H-pyrrolo[2,3-c]pyridin-3-yl]phenyl}ethanesulfonamide] | 41.3 nM | 111 nM | 4.3 nM |
| Cn1cc(-c2cc(S(C)(=O)=O)ccc2O[C@H]2CC[C@@H](O)CC2)c2cc[nH]c(=O)c21 [Example 33, 3-{2-[(cis-4-hydroxycyclohexyl)oxy]-5-(methylsulfonyl)phenyl}-1-methyl-1,6-dihydro-7H-pyrrolo[2,3-c]pyridin-7-one] | 274 nM | 716 nM | 34 nM |
| Cn1cc(-c2cc(S(C)(=O)=O)ccc2OCC2CCC(F)(F)CC2)c2cc[nH]c(=O)c21 [Example 41, 3-{2-[(4,4-difluorocyclohexyl)methoxy]-5-(methylsulfonyl)phenyl}-1-methyl-1,6-dihydro-7H-pyrrolo[2,3-c]pyridin-7-one] | 406 nM | 403 nM | 63 nM |
| Cn1cc(-c2cc(S(=O)(=O)N3CCc4ccccc43)ccc2OCC2CC2)c2cc[nH]c(=O)c21 [Example 97, 3-[2-(cyclopropylmethoxy)-5-(2,3-dihydro-1H-indol-1-ylsulfonyl)phenyl]-1-methyl-1,6-dihydro-7H-pyrrolo[2,3-c]pyridin-7-one] | 81 nM | 398 nM | 158 nM |
| Cn1cc(-c2cc(CNS(=O)(=O)CC(F)(F)F)ccc2Oc2ccc(F)cc2F)c2cc[nH]c(=O)c21 [Example 135, N-[4-(2,4-difluorophenoxy)-3-(1-methyl-7-oxo-6,7-dihydro-1H-pyrrolo[2,3-c]pyridin-3-yl)benzyl]-2,2,2-trifluoroethanesulfonamide] | 109 nM | 388 nM | 27 nM |
| Cn1cc(-c2cc(S(C)(=O)=O)ccc2OCC2CCOC2)c2cc[nH]c(=O)c21 (stereo not drawn) [Example 23, 1-methyl-3-[5-(methylsulfonyl)-2-(tetrahydrofuran-3-ylmethoxy)phenyl]-1,6-dihydro-7H-pyrrolo[2,3-c]pyridin-7-one] | 117 nM | 256 nM | 13 nM |
| Cn1cc(-c2cc(CS(C)(=O)=O)ccc2Nc2ccc(F)cc2F)c2cc[nH]c(=O)c21 [Example 122, 3-{2-[(2,4-difluorophenyl)amino]-5-[(methylsulfonyl)methyl]phenyl}-1-methyl-1,6-dihydro-7H-pyrrolo[2,3-c]pyridin-7-one] | 55 nM | 44 nM | 25 nM |
| Cn1cc(-c2cc(S(C)(=O)=O)ccc2Oc2ccc(F)cc2F)c2c(Cl)c[nH]c(=O)c21 [Example 108, 4-chloro-3-[2-(2,4-difluorophenoxy)-5-(methylsulfonyl)phenyl]-1-methyl-1,6-dihydro-7H-pyrrolo[2,3-c]pyridin-7-one] | 181 nM | 460 nM | 93 nM |
| CCS(=O)(=O)Nc1ccc(Oc2ccc(Cl)cc2)c(-c2cn(C)c3c(=O)[nH]ccc23)c1 [Example 5, N-[4-(4-chlorophenoxy)-3-(1-methyl-7-oxo-6,7-dihydro-1H-pyrrolo[2,3-c]pyridin-3-yl)phenyl]ethanesulfonamide] | 29 nM | 67 nM | 10 nM |
| CCS(=O)(=O)Nc1ccc(Oc2ccc(F)cc2F)c(-c2cn(C)c3c(=O)[nH]c(C(=O)NCCN(C)C)cc23)c1 [Example 188, 3-{2-(2,4-difluorophenoxy)-5-[(ethylsulfonyl)amino]phenyl}-N-[2-(dimethylamino)ethyl]-1-methyl-7-oxo-6,7-dihydro-1H-pyrrolo[2,3-c]pyridine-5-carboxamide] | 13.5 nM | 29.9 nM | 1.42 nM |
| CCS(=O)(=O)Nc1ccc(O[C@H]2CC[C@H](OC)CC2)c(-c2cn(C)c3c(=O)[nH]ccc23)c1 [Example 6, N-{4-[(trans-4-methoxycyclohexyl)oxy]-3-(1-methyl-7-oxo-6,7-dihydro-1H-pyrrolo[2,3-c]pyridin-3-yl)phenyl}ethanesulfonamide] | 57 nM | 36 nM | 2.8 nM |
| Cn1cc(-c2cc(CS(C)(=O)=O)ccc2Nc2ccccn2)c2cc[nH]c(=O)c21 [Example 203, 1-methyl-3-{5-[(methylsulfonyl)methyl]-2-(pyridin-2-ylamino)phenyl}-1,6-dihydro-7H-pyrrolo[2,3-c]pyridin-7-one] | 43.9 nM | 118 nM | 13.8 nM |
| Cn1cc(-c2cc(S(C)(=O)=O)ccc2Oc2ccc(F)c(F)c2)c2cc[nH]c(=O)c21 [Example 19, 3-[2-(3,4-difluorophenoxy)-5-(methylsulfonyl)phenyl]-1-methyl-1,6-dihydro-7H-pyrrolo[2,3-c]pyridin-7-one] | 80 nM | 176 nM | 16 nM |
| CCS(=O)(=O)Nc1ccc(Oc2ccc(F)cc2F)c(-c2cn(C)c3c(=O)[nH]c(C(=O)NCC4CCOC4)cc23)c1 (stereo not drawn) [Example 199, 3-{2-(2,4-difluorophenoxy)-5-[(ethylsulfonyl)amino]phenyl}-1-methyl-7-oxo-N-(tetrahydrofuran-3-ylmethyl)-6,7-dihydro-1H-pyrrolo[2,3-c]pyridine-5-carboxamide] | 6.5 nM | 36.8 nM | 3.63 nM |
